# Measurements reported in patent US12551465B2 (priority 2020, dated 2026).
# Like-named read-outs stand apart in the source and are kept apart here. Marks after values point to notes of the source that are not given here.
# Key:
# [1] = not given; remark: listed apart in the source
# healthy volunteers [2] = assay: Electrocardiogram (QTcF, QRS) after repeated dose in healthy volunteers (Example 2)
# Description: (§3) The electrocardiogram is checked after resting in a supine position in a quiet environment (e.g., without distracting factors) for at least 5 minutes. A sticky pad is attached to the body, and the pad has a thin wire connected to a machine that records measurements of the heart and prints a report. Each time an electrocardiogram is performed, the clinical trial staff performs three electrocardiogram recordings. The time between ECG recordings should not exceed 2 minutes, and the total time should not exceed 10 minutes.
# (§4) Primary assessment variables were safety, tolerability and side effects, and the clinical test items were 12-electrode electrocardiogram (including corrected QT interval (calculated by Fridericia formula) [QTc(F)]), QT interval, QRS interval, PR interval, and ventricular rate), vital signs (blood pressure, pulse, body temperature, respiration rate), hypersensitivity (determined by ECG recording and vital signs), clinical laboratory assessment (hematology, blood chemistry, urinalysis, etc.), and adverse events (including serious adverse events).
# For participants in Cohort 4, electrocardiogram, pharmacodynamic assessment (echocardiography), etc. were performed on one day before administration, the day of administration (day 1), one day after administration (day 2), day 5 and day 6.
# For participants in Cohort 5, electrocardiogram, pharmacodynamic assessment (echocardiography), etc. were performed on one day before administration, the day of administration (day 1), and day 5, day 14 and day 15.
# For participants in Cohort 6, electrocardiogram, pharmacodynamic assessment (echocardiography), etc. were performed on one day before administration, the day of administration (day 1), and day 5 and day 14.
# patients with HOCM [3] = settings: for Mean LVOT gradient at rest, actual measured value / Mean LVOT gradient at rest, decrease rate / Mean LVOT gradient with Valsalva maneuver, actual measured value / Mean LVOT gradient with Valsalva maneuver, decrease rate: drug (6) and placebo (2)
# Excerpt: Echocardiography (heart scanning): In a state in which the patient is lying flat, a transducer is placed on the chest of the patient, and high-frequency sound waves (sound waves higher than those that humans can hear) are delivered into the body towards the heart. As the sound wave passes through other parts of the body, a part of the wave bounces back to the transducer, and the image of the heart and blood flow is interpreted by the ultrasound machine. This is to examine the heart's ability to eject blood, as well as heart abnormalities, including the atria, valves and major blood vessels.
# (§1) A total of up to 24 subjects were enrolled in 3 cohorts (8 per cohort). The subjects underwent at least one set of screening, hospital stay, and the end of study (EOS). Based on (1) safety data reviewed by the Safety Review Committee (SRC) and (2) consent to participate, subjects who underwent EOS in one cohort study could participate in another subsequent cohort study after a washout period of at least 7 days after they received the last investigational medicinal product on day 5 of the previous cohort study.
# (§2) If subjects participated in another cohort study of Cohort 1 or 2, screening and inclusion/exclusion criteria were re-evaluated after the washout period. […] All subjects in each cohort were reviewed for safety data by the Safety Review Committee (SRC) after EOS before enrollment in the next dose cohort. The maximum duration of the clinical trial was over 15 weeks, including 9 weeks of screening, approximately 3 weeks of hospital stay and 3 weeks of EOS.
# In the case of once-a-day administration, the test drug was administered in the morning of each administration day. In the case of twice-a-day administration, the test drug was administered at 12-hour intervals (in the morning and in the evening) on from day 1 to day 4 and administered only in the morning on day 5.
# Subjects who meet the following criteria are considered eligible to participate in the clinical trial: • patients with a maximal left ventricular wall thickness of 15 mm or more (13 mm or more for patients with a family history); • patients with a left ventricular outflow tract (LVOT) gradient of 30 mmHg or more at rest, or an LVOT gradient of 50 mmHg or more after provocation (including provocation such as Valsalva maneuver, standing, post-exercise, etc.); or • patients with a left ventricular ejection fraction (LVEF) of 55% or more. Exclusion Criteria
# Secondary assessment variables were pharmacokinetics including Cmax, and the left ventricular outflow track (LVOT) gradient and left ventricular ejection fraction (LVEF) by transthoracic echocardiography (TTE), as wells as blood B-natriuretic peptide (BNP) and troponin levels.
# In Example 3 above, the left ventricular outflow track (LVOT) gradient), which is an effect indicator, was measured on day 5 of administration.
# healthy volunteers [4] = assay: Electrocardiogram (QTcF, QRS) after single dose in healthy volunteers (Example 1)
# Description: as §3
# (§5) Primary assessment variables were safety, tolerability and side effects, and the clinical trial items were 12-electrode electrocardiogram (including corrected QT interval (calculated by Fridericia formula) [QTc(F)]), QT interval, QRS interval, PR interval, and ventricular rate), vital signs (blood pressure, pulse, body temperature, respiration rate), hypersensitivity (determined by ECG recording and vital signs), clinical laboratory assessment (hematology, blood chemistry, urinalysis, etc.), and adverse events (including serious adverse events).
# For participants in Cohorts 1 to 3, electrocardiogram, pharmacodynamic assessment (echocardiography), etc. were performed on one day before administration, the day of administration (day 1), and for two days after administration (48 hours, day 2 and day 3).
# patients with HOCM [5] = settings: Cohort 1 of Example 3, 200 mg once a day for 5 days
# Excerpt: as §1, §2
# healthy volunteers [6] = assay: Clinical safety and tolerability, repeated dose, healthy volunteers (Example 2)
# Excerpt: (§6) In this study, a total of 24 subjects were randomized 1:1:1 to three cohorts and subjected to a total of four stages: screening, treatment period 1, drug withdrawal period, and treatment period 2. The ratio between the drug administration group and the non-drug-administration group (placebo) was 6:2.
# as §4
# healthy volunteers [7] = assay: Clinical safety and tolerability, single dose, healthy volunteers (Example 1)
# Excerpt: as §6, §5
# [8] = Cohort 3 (control): 150 mg oral three times a day, healthy volunteers
# [9] = Cohort 3: racemate 150 mg oral three times a day, only S(−)-cibenzoline moiety
# [10] = Cohort 6 (control): 150 mg oral three times a day for 14 days, PK on day 14
# [11] = Cohort 6: racemate 150 mg three times a day for 14 days, day 14, only S(−)-cibenzoline moiety
# [12] = Cohort 4, 200 mg once a day, Day 5, 1.5 hr after administration
# [13] = Cohort 4, 200 mg once a day, Day 5, 3 hr after administration
# [14] = Cohort 4, 200 mg once a day, Day 5, 8 hr after administration
# [15] = Cohort 4, 200 mg once a day, Day 5 before administration
# [16] = Cohort 5, 300 mg once a day, Day 14, 1.5 hr after administration
# [17] = Cohort 5, 300 mg once a day, Day 14, 3 hr after administration
# [18] = Cohort 5, 300 mg once a day, Day 14, 8 hr after administration
# [19] = Cohort 5, 300 mg once a day, Day 14 before administration
# [20] = HOCM Cohort 1, 200 mg once a day, before administration (day 5), before unblinding: drug (6) and placebo (2)
# [21] = HOCM Cohort 1, 200 mg once a day, day 5, 2.5 hours after administration
# [22] = HOCM Cohort 1, 200 mg once a day, day 5, 6 hours after administration
# [23] = Cohort 1, 200 mg single dose, Day 1, 1.5 hr after administration
# [24] = Cohort 1, 200 mg single dose, Day 1, 3 hr after administration
# [25] = Cohort 1, 200 mg single dose, Day 1, 8 hr after administration
# [26] = Cohort 1, 200 mg single dose, Day 1 before administration (baseline)
# [27] = Cohort 2, 300 mg single dose, Day 1, 1.5 hr after administration
# [28] = Cohort 2, 300 mg single dose, Day 1, 3 hr after administration
# [29] = Cohort 2, 300 mg single dose, Day 1, 8 hr after administration
# [30] = Cohort 2, 300 mg single dose, Day 1 before administration (baseline)
smiles,measurement,setting,value
O=C(O)CCC(=O)O.c1ccc(C2(c3ccccc3)CC2C2=NCCN2)cc1 (racemic) [racemic cibenzoline succinate],AUC,[8],7540.4 ng·h/mL
same,Cmax,[8],367.4 ng/mL
same,Tmax,[8],1.7 h
same,AUC (extract of only S(−)-cibenzoline moiety),[9],(3610.3) ng · hr/mL
same,Cmax (extract of only S(−)-cibenzoline moiety),[9],(193.2) ng/mL
same,Tmax (extract of only S(−)-cibenzoline moiety),[9],(1.7) h
same,Cmax,[1]; [10],608.1 ng/mL
same,Tmax,[1]; [10],1.3 h
same,AUC (extract of only S(−)-cibenzoline moiety),"[1]; Cohort 6, day 14, only S(−)-cibenzoline moiety, simulation: 8-hour PK data multiplied by 3",(4732.2)* ng · hr/mL
same,AUC,"[1]; Cohort 6: 150 mg three times a day for 14 days, simulation: 8-hour day 14 PK data multiplied by 3",8876.4* ng · hr/mL
same,Cmax (extract of only S(−)-cibenzoline moiety),[1]; [11],(334.2) ng/mL
same,Tmax (extract of only S(−)-cibenzoline moiety),[1]; [11],(1.0) h
c1ccc(C2(c3ccccc3)C[C@@H]2C2=NCCN2)cc1 [S(−)-cibenzoline succinate],QRS,healthy volunteers [2]; [12],100 ms
same,QTcF,healthy volunteers [2]; [12],417 ms
same,QRS,healthy volunteers [2]; [13],102 ms
same,QTcF,healthy volunteers [2]; [13],433 ms
same,QRS,healthy volunteers [2]; [14],96 ms
same,QTcF,healthy volunteers [2]; [14],417 ms
same,QRS,healthy volunteers [2]; [15],92 ms
same,QTcF,healthy volunteers [2]; [15],399 ms
same,QRS,healthy volunteers [2]; [16],124 ms
same,QTcF,healthy volunteers [2]; [16],435 ms
same,QRS,healthy volunteers [2]; [17],130 ms
same,QTcF,healthy volunteers [2]; [17],444 ms
same,QRS,healthy volunteers [2]; [18],110 ms
same,QTcF,healthy volunteers [2]; [18],427 ms
same,QRS,healthy volunteers [2]; [19],106 ms
same,QTcF,healthy volunteers [2]; [19],404 ms
same,Mean LVOT gradient at rest,patients with HOCM [3]; [20],90.18 mmHg
same,Mean LVOT gradient with Valsalva maneuver,patients with HOCM [3]; [20],128.50 mmHg
same,"Mean LVOT gradient at rest, actual measured value",patients with HOCM [3]; [21],77.09 mmHg
same,"Mean LVOT gradient at rest, decrease rate",patients with HOCM [3]; [21],15%
same,"Mean LVOT gradient with Valsalva maneuver, actual measured value",patients with HOCM [3]; [21],98.22 mmHg
same,"Mean LVOT gradient with Valsalva maneuver, decrease rate",patients with HOCM [3]; [21],24%
same,"Mean LVOT gradient at rest, actual measured value",patients with HOCM [3]; [22],88.07 mmHg
same,"Mean LVOT gradient at rest, decrease rate",patients with HOCM [3]; [22],2%
same,"Mean LVOT gradient with Valsalva maneuver, actual measured value",patients with HOCM [3]; [22],126.52 mmHg
same,"Mean LVOT gradient with Valsalva maneuver, decrease rate",patients with HOCM [3]; [22],2%
same,QRS,healthy volunteers [4]; [23],102 ms
same,QTcF,healthy volunteers [4]; [23],412 ms
same,QRS,healthy volunteers [4]; [24],107 ms
same,QTcF,healthy volunteers [4]; [24],426 ms
same,QRS,healthy volunteers [4]; [25],99 ms
same,QTcF,healthy volunteers [4]; [25],408 ms
same,QRS,healthy volunteers [4]; [26],92 ms
same,QTcF,healthy volunteers [4]; [26],406 ms
same,QRS,healthy volunteers [4]; [27],107 ms
same,QTcF,healthy volunteers [4]; [27],419 ms
same,QRS,healthy volunteers [4]; [28],116 ms
same,QTcF,healthy volunteers [4]; [28],429 ms
same,QRS,healthy volunteers [4]; [29],107 ms
same,QTcF,healthy volunteers [4]; [29],415 ms
same,QRS,healthy volunteers [4]; [30],101 ms
same,QTcF,healthy volunteers [4]; [30],411 ms
same,drug-related adverse event,patients with HOCM [5],no drug-related adverse event occurred
"c1ccc(C2(c3ccccc3)C[C@@H]2C2=NCCN2)cc1 [S(−)-cibenzoline, S-2-(2,2-diphenylcyclopropyl)-4,5-dihydro-1H-imidazole]",safety and tolerability,"healthy volunteers [6]; 200 mg or 300 mg once a day, repeated dose, healthy volunteers",safe and tolerable
same,serious side effects,healthy volunteers [6]; Cohorts 4 and 5 (200 mg once a day 5 days; 300 mg once a day 14 days) compared to Cohort 6,serious side effects did not occur
same,safety and tolerability,"healthy volunteers [7]; 200 mg or 300 mg once a day, single dose, healthy volunteers",safe and tolerable
same,serious side effects,"healthy volunteers [7]; Cohorts 1 and 2 (200 mg or 300 mg once a day, single dose) compared to Cohort 3, healthy volunteers",no serious side effects occurred
same,decrease of left ventricular outflow tract (LVOT) gradient after drug administration,"patients with HOCM [3]; HOCM patients, Example 3",about 10 mmHg
